The record followed here is patent US8106092B2, “Treatment of solid cancers” (priority 2004, dated 2012).

The structures appear in SMILES notation.

The test system of experiment [1] is B16-OVA-specific CD8^+ T-cells. The experiment can be described thus: B16-OVA-specific CD8+ T-cell responses, ex vivo ELISPOT on d12. It counts as in vivo, C57BL/6 mice. To be noted: d12 splenocytes, responses to SVYDFFVWL, KVPRNQDWL and SIINFEKL
As to the method: FIGS. 13A to C are graphical representations showing synergistic effects between PEP005-mediated cure of primaries and DC therapy on the growth of secondary tumors and on CD8^+ T-cell induction. (A) On d−3 C57BL/6 mice where inoculated with 2×10^6 B16-OVA cells on the right flank (primary tumor) and 2×10^4 B16-OVA cells on the left flank (secondary tumor). On d0 and d1 the primary B16-OVA tumors, which has reach 30.4 mm^2+SD6 were cured with i.t. injections of 25 μg of PEP005 formulated in PEG400. On d4 and d11 mice received DC therapy using DC2.4 cells pulsed with SVYDFFVWL [SEQ ID NO:1], KVPRNQDWL [SEQ ID NO:4] and SIINFEKL [SEQ ID NO:2] peptides, and ovalbumin (n=12, PEP005+DC). […] Animal groups were established and treated as in (A) except that on d12 mice were sacrificed and splenocytes analyzed in an ex vivo ELISPOT assay for responses to SVYDFFVWL [SEQ ID NO:1], KVPRNQDWL [SEQ ID NO:4] and SIINFEKL [SEQ ID NO:2] […]
To determine whether the synergistic effect of PEP005 and DC therapies seen in […] correlated with anti-cancer CD8^+ T-cell induction, a group of animals were established and treated as described for FIG. 13A except the animals were killed on d12 and their splenocytes analyzed for B16-OVA-specific CD8^+ T-cells responses. […] In the absence of treatment no significant B16-OVA-specific CD8^+ T-cell responses were detected (FIG. 13C, Controls).

The next experiment relates to B16 tumors. Nature of the experiment: Example 3: topical PEP005 with DC+IL-2 and M720/B16, larger primary B16 tumors. To be noted: topical dose printed 15 μg/ml, tumors 26-30 mm^2. It counts as in vivo, C57BL/6 mice. The text has this: To determine whether PEP005 treatment could synergize with (i) vaccine-induced anti-cancer CD4 T-cells/antibodies and/or (ii) vaccine-induced anti-cancer CD8^+ T-cells, topical PEP005 treatment was combined with vaccination using (i) B16 lysate emulsified in Montanide ISA 720 adjuvant (M720/B16) and (ii) DC2.4 cells sensitized with TRP-2 peptide, SVYDFFVWL [SEQ ID NO:1] and activated with LPS (DC). The latter group also received IL-2 to maintain the vaccine induced T-cells. […] This experiment sought to determine whether improvements in B16 cure rate could be achieved when sub-optimal topical PEP005 treatment was combined with other immune-based therapies. This experiment differed from that described in Example 2 in that treatment was initiated when tumors were slightly larger and the M720/B16 vaccine was given d0 not d−5, and the dose of B16 cells in that vaccine was increased 10-fold.
B16 tumors were injected 2×10^6 s.c. into C57BL/6 mice on d−3 and on dO when the tumors had reached an average size of 26-30 mm^2, the groups of animal received the following treatments. […]
PEP005+DCAL-2: PEP005 (as above) plus DC2.4 cells which were (i) sensitized with TRP-2 peptide, SVYDFFVWL [SEQ ID NO:1] […]

Consider `C/C=C(/C)C(=O)O[C@H]1C(C)=C[C@]23C(=O)[C@@H](C=C(CO)[C@@H](O)[C@]12O)[C@H]1[C@@H](C[C@H]3C)C1(C)C` [PEP005, ingenol-3-angelate], for which, in experiment [1], the “B16-OVA-specific CD8+ T-cell responses” value is listed as “about 120 spots/10^6 splenocytes”. For the same molecule, the “cure of B16 tumors by topical PEP005 alone” value in the experiment with B16 tumors is given as “did not cure most B16 tumors”.
